Source: patent US20250051301A1, “MUTANT IDH1 AND IDH2 INHIBITOR AND APPLICATION THEREOF” (Betta Pharmaceuticals Co., Ltd, priority 2022, published 2025)

Key:
[1] = target: T1, IDH1^R132H (Homo sapiens, UniProt O75874, R132H); experiment: Enzyme activity inhibition assay (fluorescence-based), IDH1 R132H; type: biochemical
Experimental: The inhibitory ability of the compounds on the enzyme activities of IDH1^R132H and IDH2^R140Qwas detected and expressed as the half inhibitory concentration (IC50) value. AG-881 was used as a positive control compound. In this experiment, compounds were screened on enzymes IDH1^R132H and IDH2^R140Q using a fluorescence-based method (initial concentration: 10000 nM, 3-fold dilution, 10 concentrations, and single-well detection). • (1) Preparation of 1×assay buffer. • (2) Preparation of compound concentration gradient: the compounds to be tested were assayed at an initial concentration of 10000 nM, with 3-fold dilution and 10 concentrations, and diluted into 200-fold the final concentration in 100% DMSO solution in a 384-well plate. • (3) 250 nL of DMSO and 250 nL of diluted compounds were transferred to a reaction plate with Echo 550. • (4) IDH2^R140Q enzyme detection: 25 μL of an IDH2^R140Q enzyme solution was added, and the mixture was incubated for 60 minutes; then 25 μL of a substrate solution was added, and the mixture was incubated for 150 minutes; then 25 μL of a detection buffer was added, and the mixture was shaken for 1 minute and incubated for 60 minutes; and finally, Synergy 2, Ex544/Em590 cutoff 590 was used for reading. • (5) IDH1^R132H enzyme detection: 40 μL of a mixture solution of an IDH1^R132H enzyme at the 1.25-fold final concentration and NADPH was added, and the mixture was incubated for 60 minutes; then 10 μL of a substrate solution at the 5-fold final concentration was added, and the mixture was incubated for 90 minutes; then 25 μL of a detection buffer at the 3-fold final concentration was added, and the mixture was shaken for 1 minute. and finally, Synergy 2, Ex544/Em590 cutoff 590 was used for reading. • (8) Inhibition rate calculation, formula: % Inhibition=(RFU_sample−RFU_min)/(RFU_max−RFU_min)*100%, wherein RFU-sample represents the fluorescence intensity of a sample; RFU-min represents the average value of negative control wells and represents the fluorescence intensity with an enzyme; and RFU-max represents the average value of positive control wells and represents the fluorescence intensity without an enzyme. The curve fitting was performed using Graphpad Prism software to obtain IC50 values, and the test results were as shown in table 2.

[2] = target: T1, IDH1^R132H; experiment: 2-HG assay in cells (U87 cell line stably transfected with IDH1-R132H); type: cell-based; conditions: 72 hours, read-out: 2-HG in medium (IC50, nM) (IDH1^R132H)
Experimental: The compounds were detected for the inhibition of 2-HG production in the U87 cell line stably transfected with IDH1-R132H and the culture supernatant of TF-1 cells stably transfected with IDH2-R140Q. • (1) The cultured cells were collected by centrifugation, then suspended in a cell culture solution, counted, and seeded in a 96-well cell culture plate at 160 μL of cell suspension/well (20000 cells/well for U87-IDH1-R132H; 10000 cells/well for TF-1-IDH2-R140Q). • (2) A 96-well plate dilution was taken, and the compounds to be tested were diluted in a gradient manner in DMSO and a cell culture solution; and then 40 μL of the gradient-diluted compounds to be tested were added to the 96-well plate on which cells have been plated. […] Finally, the plate was cultured in a 37° C. incubator containing 5% CO2. • (3) After the compounds were incubated with the cells for 72 hours, the cell culture plate was taken out and centrifuged at 1500 rpm for 5 minutes, and then 100 μL of the medium supernatant was aspirated for 2-HG detection. • (4) 2-HG detection: the cell supernatant was diluted with purified water, 30 μL of the diluted sample was taken into a 1.5 ml centrifuge tube, and 200 μL of the internal standard solution was added. The mixture was mixed uniformly by vortex and centrifuged at 3200 rpm at 4° C. for 15 minutes. 100 μL of the supernatant solution was diluted with water at a 1:1 ratio and then detected by LC-MS. Analyte Peak Area was used to represent the 2-HG levels. • (5) Inhibition rate calculation, formula: % Inhibition=(1−Analyte Peak Area_sample/Analyte Peak Area_max)*100%, wherein Analyte Peak Area_sample represents the Analyte Peak Area of the sample to which the compound was added; Analyte Peak Area_max represents the average value of Analyte Peak Area of positive control wells (representing the absence of the compound). The curve fitting was performed using Graphpad Prism software to obtain IC50 values, and the test results were as shown in table 2.

T1 sequence (O75874 whole entry R132H): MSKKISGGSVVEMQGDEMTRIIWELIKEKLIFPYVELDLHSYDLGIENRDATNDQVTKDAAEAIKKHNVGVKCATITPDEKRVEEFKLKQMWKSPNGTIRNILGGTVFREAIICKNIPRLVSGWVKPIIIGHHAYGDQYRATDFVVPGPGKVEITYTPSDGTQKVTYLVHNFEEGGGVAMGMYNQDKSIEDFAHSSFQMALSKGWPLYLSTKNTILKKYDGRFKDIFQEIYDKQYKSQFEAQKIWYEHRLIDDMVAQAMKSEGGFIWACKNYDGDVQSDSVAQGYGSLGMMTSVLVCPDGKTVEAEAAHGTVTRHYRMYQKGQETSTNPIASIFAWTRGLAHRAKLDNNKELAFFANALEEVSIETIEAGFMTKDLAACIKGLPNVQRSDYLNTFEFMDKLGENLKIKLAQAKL

| SMILES | IC50 ([1]; numeric values) | IC50 ([2]; numeric values) | IC50 ([1]; class symbols) | IC50 ([2]; class symbols) |
| --- | --- | --- | --- | --- |
| C[C@@H](Nc1nc(N[C@H](C)C(F)(F)F)nc(-c2ccc(N)c(Cl)n2)n1)C(F)(F)F [Example 2] | 22 nM | 17 nM | – | – |
| COc1cc(-c2nc(N[C@H](C)C(F)(F)F)nc(N[C@H](C)C(F)(F)F)n2)nc(Cl)c1N [Example 3, 6-(5-amino-6-chloro-4-methoxypyridin-2-yl)-N^2,N^4-bis((R)-1,1,1-trifluoroprop-2-yl)-1,3,5-triazine-2,4-diamine] | – | – | > 1000 nM | > 1000 nM |
| C[C@@H](Nc1nc(N[C@H](C)C(F)(F)F)nc(-c2nc(Cl)c(N)cc2F)n1)C(F)(F)F [Example 4, 6-(5-amino-6-chloro-3-fluoropyridin-2-yl)-N^2,N^4-bis((R)-1,1,1-trifluoroprop-2-yl)-1,3,5-triazine-2,4-diamine] | – | – | > 1000 nM | > 1000 nM |
| C[C@@H](Nc1nc(N[C@H](C)C(F)(F)F)nc(-c2cc(Br)c(N)c(Cl)n2)n1)C(F)(F)F [Example 6, 6-(5-amino-4-bromo-6-chloropyridin-2-yl)-N^2,N^4-bis((R)-1,1,1-trifluoropropyl-2-yl)-1,3,5-triazine-2,4-diamine] | – | – | 100 to 1000 nM | 50 to 100 nM |
| C=Cc1cc(-c2nc(N[C@H](C)C(F)(F)F)nc(N[C@H](C)C(F)(F)F)n2)nc(Cl)c1N [Example 9, 6-(5-amino-6-chloro-4-vinylpyridin-2-yl)-N^2,N^4-bis((R)-1,1,1-trifluoropropyl-2-yl)-1,3,5-triazine-2,4-diamine] | – | – | > 1000 nM | > 1000 nM |
| C[C@@H](Nc1nc(N[C@H](C)C(F)(F)F)nc(-c2cc(F)c(O)c(Cl)n2)n1)C(F)(F)F [Example 10, 6-(4,6-bis(((R)-1,1,1-trifluoroprop-2-yl)amine)-1,3,5-triazin-2-yl)-2-chloro-4-fluoropyridin-3-ol] | – | – | > 1000 nM | 100 to 1000 nM |
| C[C@@H](Nc1nc(N[C@H](C)C2CC2)nc(-c2cc(F)c(N)c(Cl)n2)n1)C1CC1 [Example 11, 6-(5-amino-6-chloro-4-fluoropyridin-2-yl)-N^2,N^4-bis((R)-1-cyclopropylethyl)-1,3,5-triazine-2,4-diamine] | – | – | > 1000 nM | 100 to 1000 nM |
| Nc1c(F)cc(-c2nc(NC3CC(F)(F)C3)nc(NC3CC(F)(F)C3)n2)nc1Cl [Example 12, 6-(5-amino-6-chloro-4-fluoropyridin-2-yl)-N^2,N^4-bis(3,3-difluorocyclobutyl)-1,3,5-triazine-2,4-diamine] | – | – | ≤ 50 nM | ≤ 50 nM |
| C[C@@H](Nc1nc(N[C@H](C)C(F)(F)F)nc(-c2cc(F)c(N)c(C(F)(F)F)n2)n1)C(F)(F)F [Example 13, 6-(5-amino-4-fluoro-6-(trifluoromethyl)pyridin-2-yl)-N^2,N^4-bis((R)-1,1,1-trifluoroprop-2-yl)-1,3,5-triazine-2,4-diamine] | – | – | > 1000 nM | 100 to 1000 nM |
| C[C@@H](Nc1nc(N[C@H](C)C(F)(F)F)nc(-c2cc(F)c(Cl)c(Cl)n2)n1)C(F)(F)F [Example 17, 6-(5,6-dichloro-4-fluoropyridin-2-yl)-N^2,N^4-bis((R)-1,1,1-trifluoroprop-2-yl)-1,3,5-triazine-2,4-diamine] | – | – | ≤ 50 nM | ≤ 50 nM |
| CNc1c(Cl)cc(-c2nc(N[C@H](C)C(F)(F)F)nc(N[C@H](C)C(F)(F)F)n2)nc1Cl [Example 20, 6-(4,6-dichloro-5-methylaminopyridin-2-yl)-N^2,N^4-bis((R)-1,1,1-trifluoroprop-2-yl)-1,3,5-triazine-2,4-diamine] | – | – | > 1000 nM | – |
| C[C@@H](Nc1nc(N[C@H](C)C(F)(F)F)nc(-c2cc(Cl)c(N(C)C)c(Cl)n2)n1)C(F)(F)F [Example 21, 6-(4,6-dichloro-5-dimethylaminopyridin-2-yl)-N^2,N^4-bis((R)-1,1,1-trifluoroprop-2-yl)-1,3,5-triazine-2,4-diamine] | – | – | 100 to 1000 nM | – |
| C[C@@H](Nc1nc(N[C@H](C)C(F)(F)F)nc(-c2cc(OC(F)F)c(N)c(Cl)n2)n1)C(F)(F)F [Example 22, 6-(5-amino-6-chloro-4-(difluoromethoxy)pyridin-2-yl)-N^2,N^4-bis((R)-1,1,1-trifluoropropyl-2-yl)-1,3,5-triazine-2,4-diamine] | – | – | > 1000 nM | – |
| C[C@@H](Nc1nc(N[C@H](C)C(F)(F)F)nc(-c2cc(C(F)(F)F)c(N)c(Cl)n2)n1)C(F)(F)F [Example 25, 6-(6-chloro-5-amino-4-(trifluoromethyl)pyridin-2-yl)-N^2,N^4-bis((R)-1,1,1-trifluoropropyl-2-yl)-1,3,5-triazine-2,4-diamine] | – | – | 100 to 1000 nM | 100 to 1000 nM |
